According to ChEMBL document CHEMBL5325411, “Design, synthesis and biological evaluation of novel phenylfuran-bisamide derivatives as P-glycoprotein inhibitors against multidrug resistance in MCF-7/ADR cell” (Eur J Med Chem, 2023):
Active and inactive are the calls of the source. The rule behind the calls is not given here.

Assays:
NCI/ADR-RES [1] = experiment: Cytotoxicity against DOX-resistant human MCF7/ADR cells assessed as reversal fold of resistance by measuring ratio of doxorubicin IC50 alone to doxorubicin IC50 in presence of test compound incubated for 48 hrs by CCK8 assay; type: functional
MCF7 = experiment: Cytotoxicity against human MCF7 cells assessed as cell growth inhibition at 5 uM incubated for 48 hrs by CCK8 assay relative to control; type: functional
NCI/ADR-RES [2] = experiment: Cytotoxicity against DOX-resistant human MCF7/ADR cells assessed as cell growth inhibition at 5 uM incubated for 48 hrs by CCK8 assay relative to control; type: functional
[3] = molecular target: ATP-dependent translocase ABCB1 (Homo sapiens, UniProt P08183); experiment: Inhibition of P-gp in DOX-resistant human MCF7/ADR cells assessed as increase in intracellular Rh123 accumulation incubated for 4 hrs by flow cytometry; type: cell-based; conditions: mcf7adr, at 2.5 to 5 µM, dose 2.5-5 µM
NCI/ADR-RES [4] = experiment: Downregulation of P-gp expression in DOX-resistant human MCF7/ADR cells at 0.5 to 5 uM incubated for 48 hrs by Western blot analysis; type: functional, cell-based; conditions: dose 0.5-5 µM

ATP-dependent translocase ABCB1, sequence (P08183 whole entry): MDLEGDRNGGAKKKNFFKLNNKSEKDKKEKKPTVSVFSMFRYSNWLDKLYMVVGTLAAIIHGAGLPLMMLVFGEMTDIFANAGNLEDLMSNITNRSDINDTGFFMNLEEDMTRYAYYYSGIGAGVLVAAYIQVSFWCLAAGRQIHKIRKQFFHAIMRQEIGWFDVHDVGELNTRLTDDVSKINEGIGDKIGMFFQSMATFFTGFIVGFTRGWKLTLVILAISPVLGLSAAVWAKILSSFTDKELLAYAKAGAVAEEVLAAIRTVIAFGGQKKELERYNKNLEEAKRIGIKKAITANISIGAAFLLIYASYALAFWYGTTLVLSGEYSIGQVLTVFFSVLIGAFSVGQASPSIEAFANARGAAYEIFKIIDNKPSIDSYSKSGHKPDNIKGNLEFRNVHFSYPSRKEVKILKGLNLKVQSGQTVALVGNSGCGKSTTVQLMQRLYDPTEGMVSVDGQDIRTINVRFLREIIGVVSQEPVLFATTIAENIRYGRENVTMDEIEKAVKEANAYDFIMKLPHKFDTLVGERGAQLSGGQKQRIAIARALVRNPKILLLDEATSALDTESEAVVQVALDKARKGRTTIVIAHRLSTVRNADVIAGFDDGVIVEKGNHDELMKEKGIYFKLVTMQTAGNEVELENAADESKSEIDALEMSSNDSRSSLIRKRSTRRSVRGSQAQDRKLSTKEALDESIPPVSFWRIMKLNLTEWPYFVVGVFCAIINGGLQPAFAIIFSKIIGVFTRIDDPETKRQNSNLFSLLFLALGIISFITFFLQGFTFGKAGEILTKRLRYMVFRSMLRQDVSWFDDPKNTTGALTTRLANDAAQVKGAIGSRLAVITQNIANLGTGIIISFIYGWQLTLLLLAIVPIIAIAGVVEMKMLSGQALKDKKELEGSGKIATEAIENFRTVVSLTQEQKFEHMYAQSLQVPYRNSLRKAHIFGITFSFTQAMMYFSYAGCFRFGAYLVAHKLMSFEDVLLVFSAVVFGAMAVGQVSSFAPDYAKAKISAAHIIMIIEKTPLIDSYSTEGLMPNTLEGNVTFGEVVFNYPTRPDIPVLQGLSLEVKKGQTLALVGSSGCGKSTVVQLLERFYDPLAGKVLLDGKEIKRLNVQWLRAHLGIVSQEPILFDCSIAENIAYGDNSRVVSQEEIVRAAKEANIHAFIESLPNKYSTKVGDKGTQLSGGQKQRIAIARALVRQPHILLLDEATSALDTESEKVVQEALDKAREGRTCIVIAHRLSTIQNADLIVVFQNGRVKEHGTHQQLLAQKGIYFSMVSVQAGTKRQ

inhibition (INH) [3] | Compound | Ratio IC50 (NCI/ADR-RES [1]) | inhibition at 5 µM (MCF7) | inhibition at 5 µM (NCI/ADR-RES [2]) | Activity (NCI/ADR-RES [4])
– | COc1cc2c(cc1OC)CN(C(=O)c1ccc(-c3ccc(NC(=O)c4ccc5ccccc5c4)cc3)o1)CC2 | 451.1 | 29.5% | 23.8% | –
– | CCCCC(=O)Nc1ccc(-c2ccc(C(=O)N3CCc4cc(OC)c(OC)cc4C3)o2)cc1 | 15.7 | 17.6% | 13.1% | –
– | COc1ccc2[nH]c(C(=O)Nc3ccc(-c4ccc(C(=O)N5CCc6cc(OC)c(OC)cc6C5)o4)cc3)cc2c1 | 214.4 | 19.5% | 16.1% | –
– | COc1cc2c(cc1OC)CN(C(=O)c1ccc(-c3ccc(NC(=O)c4cc5cc(Br)ccc5[nH]4)cc3)o1)CC2 | 5473 | 26.8% | 19.5% | –
– | COc1cc2c(cc1OC)CN(C(=O)c1ccc(-c3ccc(NC(=O)c4cc5ccc(F)cc5[nH]4)cc3)o1)CC2 | 566.4 | 28.1% | 16.9% | –
– | COc1ccc(-c2ccc(C(=O)N3CCc4cc(OC)c(OC)cc4C3)o2)cc1 | 39.4 | 11.2% | 25.7% | –
– | COc1cc2c(cc1OC)CN(C(=O)c1ccc(-c3ccc(NC(=O)c4cc5ccccc5o4)cc3)o1)CC2 | – | 44.5% | 63.7% | –
– | COc1cc2c(cc1OC)CN(C(=O)c1ccc(-c3ccc(NC(=O)c4cc5ccc(Br)cc5[nH]4)cc3)o1)CC2 | 497.5 | 7.4% | 14.7% | –
– | COc1cc2c(cc1OC)CN(C(=O)c1ccc(-c3ccc(NC(=O)c4cc5cc([N+](=O)[O-])ccc5[nH]4)cc3)o1)CC2 | 189.9 | 5.1% | 5.7% | –
– | COc1cc2c(cc1OC)CN(C(=O)c1ccc(-c3ccc(NC(=O)C(C)C)cc3)o1)CC2 | 46.5 | 19.1% | 18.4% | –
– | COc1cc2c(cc1OC)CN(C(=O)c1ccc(-c3ccc(NC(=O)c4cc5ccccc5s4)cc3)o1)CC2 | – | 48.8% | 46.8% | –
– | COc1cc2c(cc1OC)CN(CCc1ccc(NC(=O)c3cc(OC)c(OC)cc3NC(=O)c3cnc4ccccc4c3)cc1)CC2 | 319.3 | 21.3% | – | –
– | COc1cc2c(cc1OC)CN(C(=O)c1ccc(-c3ccc(NC(=O)c4c[nH]c5ccccc45)cc3)o1)CC2 | 347 | 16.1% | 18.2% | –
– | COc1cc2c(cc1OC)CN(C(=O)c1ccc(-c3ccc(NC(=O)Cc4cccc5ccccc45)cc3)o1)CC2 | 168.8 | – | 26.3% | –
Dose-Dependent Effect | COc1cc2c(cc1OC)CN(C(=O)c1ccc(-c3ccc(NC(=O)c4cc5cc(F)ccc5[nH]4)cc3)o1)CC2 | 1163 | 12% | 19.8% | inactive
– | COc1cc2c(cc1OC)CN(C(=O)c1ccc(-c3ccc(NC(=O)C4CCC4)cc3)o1)CC2 | 82.1 | 15.3% | – | –
– | C/C=C/C[C@@H](C)[C@@H](O)[C@H]1C(=O)N[C@@H](CC)C(=O)N(C)CC(=O)N(C)[C@@H](CC(C)C)C(=O)N[C@@H](C(C)C)C(=O)N(C)[C@@H](CC(C)C)C(=O)N[C@@H](C)C(=O)N[C@H](C)C(=O)N(C)[C@@H](CC(C)C)C(=O)N(C)[C@@H](CC(C)C)C(=O)N(C)[C@@H](C(C)C)C(=O)N1C [CYCLOSPORINE] | – | – | 24.5% | –
– | COc1cc2c(cc1OC)CN(C(=O)c1ccc(-c3ccc(NC(=O)c4cc5cc(Cl)ccc5[nH]4)cc3)o1)CC2 | 613.3 | 15.8% | 14.4% | –

inhibition (INH) [3] | Compound | Ratio IC50 (NCI/ADR-RES [1]) | inhibition at 5 µM (MCF7) | inhibition at 5 µM (NCI/ADR-RES [2]) | Activity (NCI/ADR-RES [4])
– | C/C=C/C(=O)Nc1ccc(-c2ccc(C(=O)N3CCc4cc(OC)c(OC)cc4C3)o2)cc1 | 130.1 | 1.7% | 8.8% | –
– | COc1cccc2c1C(=O)c1c(O)c3c(c(O)c1C2=O)C[C@@](O)(C(=O)CO)C[C@@H]3O[C@H]1C[C@H](N)[C@H](O)[C@H](C)O1 [DOXORUBICIN] | 1 | – | – | –
– | COc1cc2c(cc1OC)CN(C(=O)c1ccc(-c3ccc(NC(=O)/C=C/c4ccccc4)cc3)o1)CC2 | 277.7 | 14.5% | 14.6% | –
– | COc1cc2c(cc1OC)CN(C(=O)c1ccc(-c3ccc(NC(=O)c4cc5ccccc5[nH]4)cc3)o1)CC2 | 540.5 | 13.3% | 15.1% | –
– | COc1cc2c(cc1OC)CN(C(=O)c1ccc(-c3ccc(NC(=O)c4cc5c(F)cc(F)cc5[nH]4)cc3)o1)CC2 | 600.2 | 9.1% | 14.7% | –
– | CCC(=O)Nc1ccc(-c2ccc(C(=O)N3CCc4cc(OC)c(OC)cc4C3)o2)cc1 | 33.3 | 17.2% | 23.2% | –
– | COc1cc2c(cc1OC)CN(C(=O)c1ccc(-c3ccc(NC(=O)C4CCCC4)cc3)o1)CC2 | 18.6 | 15.7% | 19.8% | –
– | COc1cc2c(cc1OC)CN(C(=O)c1ccc(-c3ccc(NC(=O)C4CC4)cc3)o1)CC2 | 57.2 | 12.2% | 10.9% | –
– | COc1cc2c(cc1OC)CN(C(=O)c1ccc(-c3ccc(NC(=O)c4cccc5ccccc45)cc3)o1)CC2 | 201.7 | 34.8% | 28.4% | –
– | COc1cc2c(cc1OC)CN(C(=O)c1ccc(-c3ccc(NC(C)=O)cc3)o1)CC2 | 18.6 | 11% | 10.1% | –
– | COc1ccc(CCN(C)CCCC(C#N)(c2ccc(OC)c(OC)c2)C(C)C)cc1OC (stereo not drawn) | – | – | 12.2% | –
– | COc1cc2c(cc1OC)CN(C(=O)c1ccc(-c3ccc(NC(=O)c4cc5c(C)cccc5[nH]4)cc3)o1)CC2 | 88.3 | 16.6% | 15.1% | –
– | COc1cc2c(cc1OC)CN(C(=O)c1ccc(-c3ccc(NC(=O)c4cc5cc(C)ccc5[nH]4)cc3)o1)CC2 | 116.9 | 8.1% | 10.1% | –
– | COc1cc2c(cc1OC)CN(C(=O)c1ccc(-c3ccc(NC(=O)c4csc5ccccc45)cc3)o1)CC2 | – | 37.3% | 41.9% | –
– | COc1cc2c(cc1OC)CN(C(=O)c1ccc(-c3ccc(NC(=O)CC(C)(C)C)cc3)o1)CC2 | 52 | 18.5% | 12.6% | –
– | COc1ccc2cc(C(=O)Nc3ccc(-c4ccc(C(=O)N5CCc6cc(OC)c(OC)cc6C5)o4)cc3)[nH]c2c1 | 437.1 | 7.3% | 12.4% | –
– | COc1cc2c(cc1OC)CN(C(=O)c1ccc(-c3ccc(NC(=O)c4cccc5[nH]ccc45)cc3)o1)CC2 | 220 | 7.6% | 9.2% | –
– | COc1cc2c(cc1OC)CN(C(=O)c1ccc(-c3ccc(NC(=O)C(C)(C)C)cc3)o1)CC2 | 78.4 | 12.9% | 23.3% | –
